Laboratory results as given in US9102648B1, “Bioavailable diacylhydrazine ligands for modulating the expression of exogenous genes via an ecdysone receptor complex” (Intrexon Corporation, priority 2003, dated 2015).
pEC50: −log10 of the molar value. Where two headings read alike, the source gives them in different places.

Biological target: GAL4 DBD (1-147)-CfEcR(DEF)/VP16AD-βRXREF-LmUSPEF (Choristoneura fumiferana, UniProt O77240)
Test: cell-based
Details: for 27-63 assay Rel Max FI: maximum fold induction at any concentration relative to that of GS-E ligand, CHO 27-63 cells; for Fold Induction, 27-63 Assay, 3.3 uM: 3.3 uM ligand; for Fold Induction, 27-63 Assay, 3.3 uM / Fold Induction, 27-63 Assay, 33 uM: RLU ligand treated / RLU DMSO treated cells; for Fold Induction, 27-63 Assay, 33 uM: 33 uM ligand; for fold induction at 33 µM: read-out: Fold Induction, 27-63 Assay, 33 uM
Description: GAL4 DBD (1-147)-CfEcR(DEF)/VP16AD-βRXREF-LmUSPEF:
The wild-type D, E, and F domains from spruce budworm Choristoneura fumiferana EcR (“CfEcR-DEF”; SEQ ID NO: 1) were fused to a GAL4 DNA binding domain (“Gal4DBD1-147”; SEQ ID NO: 2) and placed under the control of a phosphoglycerate kinase promoter (“PGK”; SEQ ID NO: 3). Helices 1 through 8 of the EF domains from Homo sapiens RXRβ (“HsRXRβ-EF”; nucleotides 1-465 of SEQ ID NO: 4) and helices 9 through 12 of the EF domains of Locusta migratoria Ultraspiracle Protein (“LmUSP-EF”; nucleotides 403-630 of SEQ ID NO: 5) were fused to the transactivation domain from VP16 (“VP16AD”; SEQ ID NO: 6) and placed under the control of an elongation factor-1α promoter (“EF-1α”; SEQ ID NO: 7). Five consensus GAL4 response element binding sites (“5XGAL4RE”; comprising 5 copies of a GAL4RE comprising SEQ ID NO: 8) were fused to a synthetic TATA minimal promoter (SEQ ID NO: 9) and placed upstream of the luciferase reporter gene (SEQ ID NO: 10).
CHO cells were transiently transfected with transcription cassettes for GAL4 DBD (1-147) CJEcR(DEF) and for VP16AD βRXREF-LmUSPEF controlled by ubiquitously active cellular promoters (PGK and EF-la, respectively) on a single plasmid. Stably transfected cells were selected by Zeocin resistance. Individually isolated CHO cell clones were transiently transfected with a GAL4 RE-luciferase reporter (pFR Luc). 27-63 clone was selected using Hygromycin.
Cells were trypsinized and diluted to a concentration of 2.5×10^4 cells mL. 100 μL of cell suspension was placed in each well of a 96 well plate and incubated at 37° C. under 5% CO2 for 24 h. Ligand stock solutions were prepared in DMSO and diluted 300 fold for all treatments. Dose response testing consisted of 8 concentrations ranging from […] to 0.01 μM.
Luciferase reporter gene expression was measured 48 h after cell treatment using Bright-Glo™ Luciferase Assay System from Promega (E2650). Luminescence was detected at room temperature using a Dynex MLX microtiter plate luminometer.
Each assay was conducted in two separate wells, and the two values were averaged. Fold inductions were calculated by dividing relative light units (“RLU”) in ligand treated cells with RLU in DMSO treated cells. EC50s were calculated from dose response data using a three-parameter logistic model.

[1] = read-out: 27-63 assay EC50, CHO 27-63 stable cell line, luciferase reporter, average of two wells

Row | Structure (SMILES) | pEC50 | 27-63 assay Rel Max FI | Fold Induction, 27-63 Assay, 3.3 uM (average of two wells) | Fold Induction, 27-63 Assay, 33 uM (average of two wells) | pEC50 [1] | fold induction at 33 µM
1 | CCCCC(N(NC(=O)c1cccc(OC)c1C)C(=O)c1cc(OC)c(C)c(OC)c1)C(C)(C)C (stereo not shown) [RG-115852, 3,5-dimethoxy-4-methyl-benzoic acid N-(1-tert-butyl-pentyl)-N′-(3-methoxy-2-methyl-benzoyl)-hydrazide] | 7.15 | 1 |  |  |  | 
2 | COc1cc(C(=O)N(NC(=O)c2cccc(OC)c2C)C(C)(C)C)c(=O)[nH]n1 [RG-115863] |  | 0.154 | 1 | 804 | < 4.48 | 
3 | CCc1ccc(C(=O)NN(C(=O)c2cccnc2OC)C(CC)C(C)(C)C)cc1 (stereo not shown) [RG-115837] |  | 0.569 | 1474 | 1156 | 5.95 | 
4 | CCCC(N(NC(=O)c1ccc2c(c1C)OCCO2)C(=O)c1cc(OC)c(C)c(OC)c1)C(C)(C)C (stereo not shown) [RG-115865, 3,5-Dimethoxy-4-methyl-benzoic acid N-(1-tert-butyl-butyl)-N′-(5-methyl-2,3-dihydrobenzo[1,4]dioxine-6-carbonyl)-hydrazide] | 8.00 | 1.246 |  |  |  | 76
5 | CCCCC(N(NC(=O)c1ccc(CC)cc1)C(=O)c1cccnc1OC)C(C)(C)C (stereo not shown) [RG-115842] |  | 0.524 | 1269 | 447 | 5.92 | 
6 | CCc1c(C(=O)NN(C(=O)c2cc(OC)c(C)c(OC)c2)C(CC)C(C)(C)C)ccc2c1OCCO2 (stereo not shown) [RG-115859, 3,5-Dimethoxy-4-methyl-benzoic acid N′-(5-ethyl-2,3-dihydro-benzo[1,4]dioxine-6-carbonyl)-N-(1-ethyl-2,2-dimethyl-propyl)-hydrazide] | 8.15 | 1.218 |  |  |  | 1060
7 | CCCCC(N(NC(=O)c1ccc(CC)cc1)C(=O)c1cc(C)cc(C)c1)C(C)(C)C (stereo not shown) [RG-115840] |  | 0.776 | 1612 | 263 | 6.96 | 
8 | CCCCC(N(NC(=O)c1cccc(OC)c1C)C(=O)c1cc(C)cc(C)c1)C(C)(C)C (stereo not shown) [RG-115851, 3,5-dimethyl-benzoic acid N-(1-tert-butyl-pentyl)-N′-(3-methoxy-2-methyl-benzoyl)-hydrazide] | 7.70 | 1 |  |  |  | 
9 | COc1cccc(C(=O)NN(C(=O)c2ccc(C(F)(F)F)nc2OC)C(C)(C)C)c1C [RG-115834] |  | 0.733 | 1900 | 1837 | 5.93 | 
10 | COc1cc(C(=O)N(NC(=O)c2cccc(OC)c2C)C(C)(C)C)nc(OC)n1 [RG-115849] |  | 0.007 | 1 | 231 | < 4.48 | 
11 | COc1cccc(C(=O)NN(C(=O)c2cc(Cl)nnc2Cl)C(C)(C)C)c1C [RG-115861] |  | 0.215 | 8 | 593 | 5.37 | 
12 | CCc1ccc(C(=O)NN(C(=O)c2cc(OC)c(C)c(OC)c2)C(c2ccccc2)C(C)(C)C)cc1 (racemic) [RG-115847] |  | 1.120 | 2729 | 848 | 5.96 | 
13 | COc1cc(C(=O)N(NC(=O)c2cccc(OC)c2C)C(C)(C)C)c(OC)nn1 [RG-115850] |  | 0.001 | 1 | 23 | < 4.48 | 
14 | CCCC(N(NC(=O)c1ccc2c(c1CC)OCCO2)C(=O)c1cc(OC)c(C)c(OC)c1)C(C)(C)C (stereo not shown) [RG-115867, 3,5-Dimethoxy-4-methyl-benzoic acid N-(1-tert-butyl-butyl)-N′-(5-ethyl-2,3-dihydro-benzo[1,4]dioxine-6-carbonyl)-hydrazide] |  |  |  |  |  | 654
15 | COc1cccc(C(=O)NN(C(=O)c2ccc(C(F)(F)F)n(C)c2=O)C(C)(C)C)c1C [RG-115835] |  | 0.731 | 3 | 1895 | 4.70 | 
16 | CCCCC(N(NC(=O)c1ccc(CC)cc1)C(=O)c1cc(OC)c(C)c(OC)c1)C(C)(C)C (stereo not shown) [RG-115841] |  | 0.610 | 1407 | 437 | 5.70 | 
17 | COc1cccc(C(=O)NN(C(=O)c2ccnnc2)C(C)(C)C)c1C [RG-115862] |  | 0.048 | 1 | 243 | < 4.48 | 
18 | CCc1ccc(C(=O)NN(C(=O)c2cccnc2OC)C(c2ccccc2)C(C)(C)C)cc1 (stereo not shown) [RG-115848] |  | 0.494 | 1346 | 1156 | 5.89 | 
19 | CCc1ccc(C(=O)NN(C(=O)c2cc(C)cc(C)c2)C(CC)C(C)(C)C)cc1 (stereo not shown) [RG-115836] |  | 0.808 | 1822 | 823 | 7.01 | 
